Earlier results in US20140348954A1, “PRODUCT COMPRISING GLUCOMANNAN AND CHITOSAN FOR THE TREATMENT OF GASTROESOPHAGEAL REFLUX DISEASE” (DICOFARM S.P.A., priority 2012, published 2014).

Target: transient receptor potential cation channel subfamily V member 1 (TrpV1) (Homo sapiens, UniProt Q8NER1)
Settings: inflamed human esophagus due to GERD

transient receptor potential cation channel subfamily V member 1 (TrpV1), sequence (Q8NER1 whole entry): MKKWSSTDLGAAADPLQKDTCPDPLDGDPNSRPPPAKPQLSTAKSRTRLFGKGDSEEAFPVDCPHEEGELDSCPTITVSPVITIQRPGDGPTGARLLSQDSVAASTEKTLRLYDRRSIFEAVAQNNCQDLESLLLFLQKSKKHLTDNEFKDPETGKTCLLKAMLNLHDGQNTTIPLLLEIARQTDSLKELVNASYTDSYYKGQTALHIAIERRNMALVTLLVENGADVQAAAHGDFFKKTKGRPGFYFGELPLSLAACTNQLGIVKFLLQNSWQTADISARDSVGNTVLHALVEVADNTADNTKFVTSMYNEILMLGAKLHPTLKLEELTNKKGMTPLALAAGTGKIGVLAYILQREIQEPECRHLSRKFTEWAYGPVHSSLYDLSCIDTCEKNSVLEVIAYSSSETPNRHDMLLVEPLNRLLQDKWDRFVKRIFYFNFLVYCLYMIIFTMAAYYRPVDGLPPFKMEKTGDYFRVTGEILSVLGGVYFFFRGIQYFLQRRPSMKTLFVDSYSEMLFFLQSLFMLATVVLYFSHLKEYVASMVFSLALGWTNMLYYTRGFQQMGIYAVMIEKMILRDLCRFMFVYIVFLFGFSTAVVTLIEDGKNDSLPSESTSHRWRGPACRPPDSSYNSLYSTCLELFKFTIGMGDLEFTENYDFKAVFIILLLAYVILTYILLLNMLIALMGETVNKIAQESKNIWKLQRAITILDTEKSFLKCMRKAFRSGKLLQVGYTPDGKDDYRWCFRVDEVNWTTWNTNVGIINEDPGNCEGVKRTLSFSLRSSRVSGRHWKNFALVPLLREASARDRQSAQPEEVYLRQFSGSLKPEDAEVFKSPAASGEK

action on TrpV1: typical activator
Structure (SMILES): COc1cc(/C=C/C(=O)CC(=O)/C=C/c2ccc(O)c(OC)c2)ccc1O [curcumin]
